In patent US12344610B2, “APOL1 inhibitors and methods of use” (Maze Therapeutics, Inc., priority 2022, dated 2025):
Like-named read-outs stand apart in the source and are kept apart here.

How the values were obtained:
[1] = system: HEK293 clonal cell line overexpressing APOL1 G1; assay: APOL1 G1 HEK293 cell rescue assay (Example B3); assay type: cell-based; settings: geometric mean of at least 2 runs, † = single run, ¥ = concentration at 50% rescue estimated (no sigmoidal curve)
How it was run: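 Rescue of cell death caused by APOL1 G1 overexpression was measured in a clonal HEK293 line. Compounds were tested in duplicate on one plate, and EC50s were geometric means across at least two runs on different days. Some values are estimated 50%-rescue concentrations where curve fitting failed.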

[2] = system: Trypanosoma brucei Lister 427 VSG221 with APOL1 G2 recombinant protein; assay: APOL1 G2 trypanosome cell rescue assay (Example B5); assay type: cell-based; settings: geometric mean of at least 2 assay runs, † = single assay run
How it was run: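 Viability read by CellTiter-Glo luminescence after 20 h co-incubation (37° C, 5% CO2) of 250 trypanosomes/well in modified HMI-9 with test compound (duplicate 11-point, 2-fold dilutions, 0.4% DMSO) and APOL1 protein, […]. Protein: mature residues 28-398, E. coli inclusion-body refolded, tag cleaved, in DDM.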

[3] = HEK293 clonal line overexpressing APOL1 G1
[4] = Trypanosoma brucei, 20 h, read-out: APOL1 G2 Trypanosome Rescue EC50, Trypanosoma brucei Lister 427 VSG221 with APOL1 G2 recombinant protein, 20 hours, CellTiter-Glo
[5] = Homo sapiens, HEK293, HEK293 clonal line overexpressing APOL1 G1
[6] = read-out: APOL1 G2 Trypanosome Rescue EC50, Trypanosoma brucei Lister 427 VSG221 with APOL1 G2 recombinant protein, 20 hours, CellTiter-Glo

## CC(COc1ccc2c(c1)CCC(=O)N2C)N1CCC2(CC1)C(=O)Nc1ccc(Cl)cc12 (single isomer, unassigned) [Compound 200]
[1]; [3]
  EC50: 203 nM
[2]; [4]
  EC50: 72.4 nM

## CC(COc1ccc2c(c1)CCC(=O)N2C)N1CCC2(CC1)C(=O)Nc1ccc(C#N)cc12 (single isomer, unassigned) [Compound 203, (S) or (R)-1′-{1-[(1-methyl-2-oxo-1,2,3,4-tetrahydroquinolin-6-yl)oxy]propan-2-yl}-2-oxo-1,2-dihydrospiro[indole-3,4′-piperidine]-5-carbonitrile]
[1]; [3]
  EC50: 457 nM
[2]; [4]
  EC50: 227 nM

## C[C@@H](COc1ccc(S(C)(=O)=O)c(C(F)F)c1)N1CCC2(CC1)C(=O)Nc1ccc(Cl)cc12 (single isomer, unassigned) [Compound 210]
[1]; [5]
  EC50: 153 nM
[2]; [4]
  EC50: 21.8 nM

## C[C@@H](COc1ccc2c(cnn2C)c1)N1CCC2(CC1)C(=O)Nc1ccc(Cl)cc12 (single isomer, unassigned) [Compound 211]
[1]; [5]
  EC50: 380 nM
[2]; [4]
  EC50: 159 nM

## C[C@@H](COc1ccc(S(C)(=O)=O)c(C(F)F)c1)N1CCC2(CC1)C(=O)Nc1ccc(C#N)cc12 (single isomer, unassigned) [Compound 212]
[1]; [5]
  EC50: 192 nM
[2]; [4]
  EC50: 32.1 nM

## CS(=O)(=O)c1ccc(OCCN2CCC3(CC2)C(=O)Nc2ccc(Cl)cc23)cc1C(F)CF (single isomer, unassigned) [Compound 218, 5-chloro-1′-(2-{3-[(1S or 1R)-1,2-difluoroethyl]-4-methanesulfonylphenoxy}ethyl)-1,2-dihydrospiro[indole-3,4′-piperidin]-2-one]
[1]; [5]
  EC50: 125 nM
[2]; [6]
  EC50: 31.6 nM

## CS(=O)(=O)c1ccc(OCCN2CCC3(CC2)C(=O)Nc2ccc(Cl)cc23)cc1C(F)CF (single isomer, unassigned) [Compound 219, 5-chloro-1′-(2-{3-[(1R or 1S)-1,2-difluoroethyl]-4-methanesulfonylphenoxy}ethyl)-1,2-dihydrospiro[indole-3,4′-piperidin]-2-one]
[1]; [3]
  EC50: 116 nM
[2]; [6]
  EC50: 10.5 nM

## CS(=O)(=O)c1ccc(OCCN2CCC3(CC2)C(=O)Nc2ccc(C#N)cc23)cc1C(F)CF (single isomer, unassigned) [Compound 221, 1′-(2-{3-[(1S or 1R)-1,2-difluoroethyl]-4-methanesulfonyl-phenoxy}ethyl)-2-oxo-1,2-dihydrospiro [indole-3,4′-piperidine]-5-carbonitrile]
[1]; [3]
  EC50: 217 nM
[2]; [4]
  EC50: 29.5 nM

## CC(COc1ccc(C2(S(C)(=O)=O)COC2)cc1)N1CCC2(CC1)C(=O)Nc1ccc(C#N)cc12 (single isomer, unassigned) [Compound 263, (S) or (R)-1′-{1-[4-(3-methanesulfonyloxetan-3-yl)phenoxy]propan-2-yl}-2-oxo-1,2-dihydrospiro[indole-3,4′-piperidine]-5-carbonitrile]
[1]; [3]
  EC50: 462 nM
[2]; [4]
  EC50: 95.3 nM

## CN1C(=O)C2(CCN(CCOc3ccc(C4(S(C)(=O)=O)CC(O)C4)cc3)CC2)c2cc(C(F)F)ccc21 (single isomer, unassigned) [Compound 278, 5-(difluoromethyl)-1-methyl-1′-(2-{4-[(cis) or (trans)-3-hydroxy-1-methanesulfonylcyclobutyl]phenoxy}ethyl)-1,2-dihydrospiro[indole-3,4′-piperidin]-2-one]
[1]; [3]
  EC50: 92.6 nM
[2]; [6]
  EC50: 25.5 nM

## CS(=O)(=O)C1(c2ccc(OCCN3CCC4(CC3)C(=O)Nc3ccc(C(F)F)cc34)cc2)CC(O)C1 (single isomer, unassigned) [Compound 281, 5-(difluoromethyl)-1′-(2-{4-[(cis) or (trans)-3-hydroxy-1-methanesulfonylcyclobutyl]phenoxy}ethyl)-1,2-dihydrospiro[indole-3,4′-piperidin]-2-one]
[1]; [3]
  EC50: 164 nM
[2]; [6]
  EC50: 28.1 nM

## CC(O)c1ncc(OCCN2CCC3(CC2)C(=O)Nc2ccc(Cl)cc23)cn1 (single isomer, unassigned) [Compound 285, 5-chloro-1′-[2-({2-[(1S) or (1R)-1-hydroxyethyl]pyrimidin-5-yl}oxy)ethyl]-1,2-dihydrospiro[indole-3,4′-piperidin]-2-one]
[1]; [5]
  EC50: 292 nM
[2]; [4]
  EC50: 212 nM

## CC(O)c1ncc(OCCN2CCC3(CC2)C(=O)Nc2ccc(Cl)cc23)cn1 (single isomer, unassigned) [Compound 286, 5-chloro-1′-[2-({2-[(1R) or (1S)-1-hydroxyethyl]pyrimidin-5-yl}oxy)ethyl]-1,2-dihydrospiro[indole-3,4′-piperidin]-2-one]
[1]; [3]
  EC50: 272 nM
[2]; [6]
  EC50: 175 nM

## CC(O)c1ncc(OCCN2CCC3(CC2)C(=O)Nc2ccc(C(F)F)cc23)cc1C(F)(F)F (single isomer, unassigned) [Compound 287, 5-(difluoromethyl)-1′-[2-({6-[(1S) or (1R)-1-hydroxyethyl]-5-(trifluoromethyl)pyridin-3-yl}oxy)ethyl]-1,2-dihydrospiro[indole-3,4′-piperidin]-2-one]
[1]; [5]
  EC50: 85.8 nM
[2]; [4]
  EC50: 13.9 nM

## CC(O)c1ncc(OCCN2CCC3(CC2)C(=O)Nc2ccc(C(F)F)cc23)cc1C(F)(F)F (single isomer, unassigned) [Compound 288, 5-(difluoromethyl)-1′-[2-({6-[(1R) or (1S)-1-hydroxyethyl]-5-(trifluoromethyl)pyridin-3-yl}oxy)ethyl]-1,2-dihydrospiro[indole-3,4′-piperidin]-2-one]
[1]; [3]
  EC50: 62.1 nM
[2]; [6]
  EC50: 9.75 nM

## CC[C@]1(O)C[C@H](N2C(=O)CCc3cc(OCCN4CCC5(CC4)C(=O)Nc4ccc(Cl)cc45)cnc32)C1 (single isomer, unassigned) [Compound 290, 5-chloro-1′-[2-({7-oxo-8-[(trans)-3-ethyl-3-hydroxycyclobutyl]-5,6,7,8-tetrahydro-1,8-naphthyridin-3-yl}oxy)ethyl]-1,2-dihydrospiro[indole-3,4′-piperidin]-2-one]
[1]; [5]
  EC50: 63.9 nM
[2]; [4]
  EC50: 24 nM

## CC(O)c1ncc(OCCN2CCC3(CC2)C(=O)Nc2ccc(Cl)cc23)cc1C(F)(F)F (single isomer, unassigned) [Compound 291, 5-chloro-1′-[2-({6-[(1R) or (1S)-1-hydroxyethyl]-5-(trifluoromethyl)pyridin-3-yl}oxy)ethyl]-1,2-dihydrospiro[indole-3,4′-piperidin]-2-one]
[1]; [3]
  EC50: 104 nM
[2]; [6]
  EC50: 26.5 nM

## CC(O)c1ncc(OCCN2CCC3(CC2)C(=O)Nc2ccc(Cl)cc23)cc1C(F)(F)F (single isomer, unassigned) [Compound 292, 5-chloro-1′-[2-({6-[(1S) or (1R)-1-hydroxyethyl]-5-(trifluoromethyl)pyridin-3-yl}oxy)ethyl]-1,2-dihydrospiro[indole-3,4′-piperidin]-2-one]
[1]; [3]
  EC50: 51.5 nM
[2]; [6]
  EC50: 10.8 nM

## O=C1CCc2cc(OCCN3CCC4(CC3)C(=O)Nc3ccc(Cl)cc34)cnc2N1[C@H]1C[C@@](O)(C2CC2)C1 (single isomer, unassigned) [Compound 297, 5-chloro-1′-[2-({7-oxo-8-[(trans)-3-cyclopropyl-3-hydroxycyclobutyl]-5,6,7,8-tetrahydro-1,8-naphthyridin-3-yl}oxy)ethyl]-1,2-dihydrospiro[indole-3,4′-piperidin]-2-one]
[1]; [5]
  EC50: 119 nM
[2]; [4]
  EC50: 31.5 nM

## C[C@]1(O)C[C@H](N2C(=O)CCc3cc(OCCN4CCC5(CC4)C(=O)Nc4ccc(Cl)cc45)cnc32)C1 (single isomer, unassigned) [Compound 307, 5-chloro-1′-[2-({7-oxo-8-[(trans)-3-hydroxy-3-methylcyclobutyl]-5,6,7,8-tetrahydro-1,8-naphthyridin-3-yl}oxy)ethyl]-1,2-dihydrospiro[indole-3,4′-piperidin]-2-one]
[1]; [5]
  EC50: 70 nM
[2]; [4]
  EC50: 27.2 nM

## CS(=O)(=O)c1ccc(OCCN2CCC3(CC2)C(=O)N(CCO)c2ccc(Cl)cc23)cc1 [Compound 18, 5-chloro-1-(2-hydroxyethyl)-1′-[2-(4-methanesulfonylphenoxy)ethyl]-1,2-dihydrospiro[indole-3,4′-piperidin]-2-one]
[1]; [5]
  EC50: 663 nM
[2]; [4]
  EC50: 234 nM

## COCCN1C(=O)C2(CCN(CCOc3ccc(S(C)(=O)=O)cc3)CC2)c2cc(Cl)ccc21 [Compound 20, 5-chloro-1′-[2-(4-methanesulfonylphenoxy)ethyl]-1-(2-methoxyethyl)-1,2-dihydrospiro[indole-3,4′-piperidin]-2-one]
[1]; [5]
  EC50: 815 nM
[2]; [4]
  EC50: 263 nM

## CN1C(=O)C2(CCN(CCOc3ccc(S(=O)(=O)CCCS(C)(=O)=O)cc3)CC2)c2cc(Cl)ccc21 [Compound 23, 5-chloro-1′-{2-[4-(3-methanesulfonylpropanesulfonyl)phenoxy]ethyl}-1-methyl-1,2-dihydrospiro[indole-3,4′-piperidin]-2-one]
[1]; [5]
  EC50: 449 nM
[2]; [4]
  EC50: 113 nM

## CS(=O)(=O)c1ccc(OCCN2CCC3(CC2)C(=O)N(CCO)c2ccc(Br)cc23)cc1 [Compound 24, 5-bromo-1-(2-hydroxyethyl)-1′-[2-(4-methanesulfonylphenoxy)ethyl]-1,2-dihydrospiro[indole-3,4′-piperidin]-2-one]
[1]; [5]
  EC50: 609 nM
[2]; [4]
  EC50: 163 nM
